Reference: ChEMBL document CHEMBL6134841, “3,5-Dihydroxybenzoic Acid as a Potent Inhibitor of Tyrosine Phenol-Lyase Decreases Fecal Phenol Levels in Mice” (J Med Chem, 2025)
Activity calls are given as the source filed them. The calls are words filed in the database; no cut-off is given here.

Tests used:
Morganella morganii [1] = experiment: Inhibition of recombinant Morganella morganii JCM1672 TPL extracted from Escherichia coli BL21(DE3) assessed as decrease in phenol production incubated for 3 mins in presence of PLP/L-Tyr by LC-MS analysis
[2] = Competitive inhibition of bacterial TPL assessed as decrease in phenol production incubated for 3 mins in presence of PLP/L-Tyr by LC-MS analysis; design: species or system Bacteria
Citrobacter koseri [3] = experiment: Inhibition of recombinant Citrobacter koseri JCM1658 TPL extracted from Escherichia coli BL21(DE3) assessed as decrease in phenol production incubated for 3 mins in presence of PLP/L-Tyr by LC-MS analysis
Morganella morganii [4] = experiment: Effect on TPL expression in Morganella morganii JCM1672 up to 500 uM by immunoblot analysis; format: functional
Citrobacter koseri [5] = experiment: Inhibition of TPL in Citrobacter koseri JCM1658 assessed as decrease in phenol production incubated for 0.5 to 3 hrs by absorbance based analysis; conditions: dose 100-500 µM, time 0.5-3 hrs
Morganella morganii [6] = experiment: Inhibition of cell growth in Morganella morganii JCM1672 up to 500 uM incubated up to 24 hrs; format: functional, organism-based
Mus musculus [7] = experiment: In vivo inhibition of TPL in C57BL/6J mouse assessed as reduction in L-Tyr-induced fecal phenol level administered orally measured after 14 days by LC-MS analysis; format: functional, organism-based; conditions: route po, time 14.0 day
Morganella morganii [8] = experiment: Inhibition of TPL in Morganella morganii JCM1672 assessed as decrease in phenol production at 100 uM incubated for 1 hr by absorbance based analysis
Mus musculus [9] = experiment: In vivo inhibition of TPL in feces of C57BL/6J mouse administered orally measured after 14 days by immunoassay; format: functional, organism-based; conditions: route po, time 14.0 day
Mus musculus [10] = experiment: Effect on fecal phenol level in C57BL/6J mouse administered orally measured after 7 days by LC-MS analysis; format: functional, organism-based; conditions: route po, time 7.0 day
Morganella morganii [11] = experiment: Inhibition of TPL in Morganella morganii JCM1672 assessed as decrease in phenol production at 500 uM incubated for 0.5 to 3 hrs by absorbance based analysis; conditions: time 0.5-3 hrs
Citrobacter koseri [12] = experiment: Effect on TPL expression in Citrobacter koseri JCM1658 up to 500 uM by immunoblot analysis; format: functional
Morganella morganii [13] = experiment: Inhibition of TPL in Morganella morganii JCM1672 assessed as decrease in phenol production at 100 to 500 uM incubated for 3 hrs by absorbance based analysis relative to control; conditions: dose 100-500 µM
Citrobacter koseri [14] = experiment: Inhibition of cell growth in Citrobacter koseri JCM1658 up to 500 uM incubated up to 24 hrs; format: functional, organism-based
Citrobacter koseri [15] = experiment: Inhibition of TPL in Citrobacter koseri JCM1658 assessed as decrease in phenol production at 100 to 500 uM incubated for 3 hrs by absorbance based analysis relative to control; conditions: dose 100-500 µM

Structure (SMILES): COc1ccc(C(=O)O)cc1O [ISOVANILLIC ACID]
- inhibition (Morganella morganii [1]): Active
- Ki [2]: 44.7 µM

Structure (SMILES): O=C(O[C@@H]1Cc2c(O)cc(O)cc2O[C@@H]1c1cc(O)c(O)c(O)c1)c1cc(O)c(O)c(O)c1
- inhibition (Morganella morganii [1]): Active
- inhibition (Citrobacter koseri [3]): Active

Structure (SMILES): O=C(O)Cc1ccc(O)c(O)c1
- inhibition (Morganella morganii [1]): inactive

Structure (SMILES): O=C(O[C@@H]1Cc2c(O)cc(O)cc2O[C@@H]1c1ccc(O)c(O)c1)c1cc(O)c(O)c(O)c1
- inhibition (Morganella morganii [1]): Active
- inhibition (Citrobacter koseri [3]): Active

Structure (SMILES): O=C(O)c1ccccc1
- inhibition (Morganella morganii [1]): inactive

Structure (SMILES): O=C(O)c1cccnc1
- inhibition (Morganella morganii [1]): inactive

Structure (SMILES): Oc1ccccc1O
- inhibition (Morganella morganii [1]): inactive

Structure (SMILES): N[C@@H](Cc1ccc(O)cn1)C(=O)O
- Ki [2]: 130 µM

Structure (SMILES): O=C(O)c1cncc(O)c1
- inhibition (Morganella morganii [1]): Active

Structure (SMILES): O=C(O)c1ccc(O)nc1
- inhibition (Morganella morganii [1]): inactive

Structure (SMILES): O=C(O)c1ccc(O)cc1
- inhibition (Morganella morganii [1]): inactive

Structure (SMILES): Oc1cccc(O)c1O
- inhibition (Morganella morganii [1]): inactive

Structure (SMILES): Oc1cccc(O)c1
- inhibition (Morganella morganii [1]): inactive

Structure (SMILES): O=C(O)c1ccc(O)c(O)c1 [PROTOCATECHUIC ACID]
- inhibition (Morganella morganii [1]): Active
- Ki [2]: 45.5 µM

Structure (SMILES): O=C(O)c1cc(O)c(O)c(O)c1 [GALLIC ACID]
- inhibition (Morganella morganii [1]): Active
- inhibition (Citrobacter koseri [3]): Active
- Ki [2]: 73.2 µM

Structure (SMILES): COc1ccc(C(=O)O)cc1OC
- inhibition (Morganella morganii [1]): inactive

Structure (SMILES): O=C(O)c1cccc(O)c1 [3-HYDROXYBENZOIC ACID]
- inhibition (Morganella morganii [1]): Active
- Ki [2]: 35.8 µM

Structure (SMILES): COc1cc(C(=O)O)ccc1O
- inhibition (Morganella morganii [1]): inactive

Structure (SMILES): O=C(O)c1cc(O)cc(O)c1 [3,5-DIHYDROXYBENZOIC ACID]
- Activity (Morganella morganii [4]): No effect
- inhibition (Morganella morganii [1]): Active
- inhibition (Citrobacter koseri [5]): Dose-dependent-effect
- inhibition (Morganella morganii [6]): inactive
- inhibition (Mus musculus [7]): Active
- inhibition (Morganella morganii [8]): Active
- inhibition (Mus musculus [9]): Active; Tpl Expression Was Below The Detection Limit
- Activity (Mus musculus [10]): No effect
- inhibition (Morganella morganii [11]): Active
- Activity (Citrobacter koseri [12]): No effect
- Imax (Morganella morganii [13]): 29.3%
- inhibition (Citrobacter koseri [14]): inactive
- Ki [2]: 25.7 µM
- Imax (Citrobacter koseri [15]): 56.2%
